Data published in US20200288710A1, “SUBSTITUTED SULPHONAMIDES FOR CONTROLLING ANIMAL PESTS” (BAYER CROPSCIENCE AKTIENGESELLSCHAFT, priority 2016, published 2020).

What was measured:
Format in all cases: in vivo
Meloidogyne incognita = Meloidogyne incognita test; details: 336 h, lettuce, after 14 days, read-out: nematicidal efficacy (formation of galls)
In short: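 Gall formation on lettuce roots scored after 14 days: 0% means gall count equals untreated control, 100% means none. Sand vessels held the compound (acetone concentrate diluted in water), southern root-knot nematode egg/larvae suspension and lettuce seeds.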

Myzus persicae [1] = assay: Myzus persicae spray test (bell pepper plants); details: 144 h, after 6 days, read-out: efficacy (kill in %)
Experimental: Myzus persicae—Spray Test Solvent: 14 parts by weight of dimethylformamide Emulsifier: alkylaryl polyglycol ether To produce a suitable preparation of active compound, 1 part by weight of active compound is dissolved using the specified parts by weight of solvent and made up with water containing an emulsifier concentration of 1000 ppm until the desired concentration is attained. To produce further test concentrations, the formulation is diluted with emulsifier-containing water. If the addition of ammonium salts or/and penetrants is required, these are each added in a concentration of 1000 ppm to the formulation solution. Bell pepper plants (Capsicum annuum) severely infested with the green peach aphid (Myzus persicae) are treated by spraying with the active compound preparation in the desired concentration. After 6 days, the kill in % is determined. 100% means that all of the aphids have been killed; 0% means that none of the aphids have been killed.

Phaedon cochleariae = Phaedon cochleariae spray test; details: foliar, 168 h, Chinese cabbage leaf discs, larvae, after 7 days, read-out: efficacy
In short: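 Mortality of beetle larvae scored at day 7, expressed as % (0% none killed, 100% all). Formulation: compound in solvent, made up and further diluted with emulsifier-containing water (1000 ppm emulsifier).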

Tetranychus urticae = Tetranychus urticae spray test, OP-resistant; details: foliar, 144 h, bean leaf discs, after 6 days, read-out: efficacy
Experimental: Tetranychus urticae—Spray Test, OP-Resistant
To produce a suitable preparation of active compound, 1 part by weight of active compound is dissolved using the specified parts by weight of solvent and made up with water containing an emulsifier concentration of 1000 ppm until the desired concentration is attained. To produce further test concentrations, the formulation is diluted with emulsifier-containing water.
Discs of bean leaves (Phaseolus vulgaris) infested with all stages of the greenhouse red spider mite (Tetranychus urticae) are sprayed with an active compound preparation of the desired concentration.
After 6 days, the efficacy in % is determined. 100% means that all the spider mites have been killed; 0% means that no spider mites have been killed.

Myzus persicae [2] = assay: Myzus persicae oral test; details: 120 h, 20 ppm, oral uptake, after 5 days, read-out: efficacy
In short: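 Aphids of mixed ages imbibe, through parafilm, compound solution (acetone stock, water-diluted) combined with sugar-supplemented IPL41 medium to 200 μl. Efficacy read at day 5 as percent killed, 0% meaning no deaths.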

Aphis gossypii = Aphis gossypii spray test; details: 100 ppm, cotton plants, after 6 days
Experimental: Aphis gossypii—Spray Test Solvent: 14 parts by weight of dimethylformamide Emulsifier: alkylaryl polyglycol ether To produce a suitable preparation of active compound, 1 part by weight of active compound is dissolved using the specified parts by weight of solvent and made up with water containing an emulsifier concentration of 1000 ppm until the desired concentration is attained. To produce further test concentrations, the formulation is diluted with emulsifier-containing water. If the addition of ammonium salts or/and penetrants is required, these are each added in a concentration of 1000 ppm to the formulation solution. Cotton plants (Gossypium hirsutum) which are heavily infested by the cotton aphid (Aphis gossypii) are sprayed with an active compound preparation of the desired concentration. After 6 days, the kill in % is determined. 100% means that all the aphids have been killed; 0% means that no aphids have been killed.

Lucilia cuprina = Lucilia cuprina test; details: 48 h, L1 larvae, after 2 days, read-out: efficacy (kill in %)
In short: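 About 20 L1 larvae were held on minced horsemeat treated with compound, which was formulated in DMSO and diluted with water. Percent kill was scored after 2 days.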

Musca domestica = Musca domestica test; details: 48 h, adult houseflies, after 2 days, read-out: efficacy (kill in %)
Experimental: Musca domestica Test Solvent: dimethyl sulphoxide To produce a suitable preparation of active compound, 10 mg of active compound are mixed with 0.5 ml of dimethyl sulphoxide, and the concentrate is diluted with water to the desired concentration. Vessels containing a sponge treated with sugar solution and the active compound preparation of the desired concentration are populated with 10 adult houseflies (Musca domestica). After 2 days, the kill in % is determined. 100% means that all of the flies have been killed; 0% means that none of the flies have been killed.

Myzus persicae [3] = assay: Myzus persicae spray test (Chinese cabbage leaf discs); details: foliar, 120 h, 500 g/ha, after 5-6 days, read-out: efficacy
In short: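 Formulated compound in acetone/dimethylformamide, diluted in water with 1000 ppm emulsifier, was sprayed onto Brassica pekinensis leaf discs carrying mixed-stage Myzus persicae. Percent mortality was read 5-6 days later (0% = no aphids killed, 100% = all killed).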

Boophilus microplus = Boophilus microplus injection test; details: 20 μg/animal, injection into engorged adult female cattle ticks, after 7 days
Experimental: Boophilus microplus—Injection Test Solvent: dimethyl sulphoxide To produce a suitable preparation of active compound, 10 mg of active compound are mixed with 0.5 ml of solvent and the concentrate is diluted with solvent to the desired concentration. 1 μl of the active compound solution is injected into the abdomen of 5 engorged adult female cattle ticks (Boophilus microplus). The animals are transferred into dishes and kept in a climate-controlled room. Efficacy is assessed after 7 days by laying of fertile eggs. Eggs which are not externally visibly fertile are stored in a climate-controlled cabinet until the larvae hatch after about 42 days. An efficacy of 100% means that none of the ticks has laid any fertile eggs; 0% means that all the eggs are fertile.

Compound	pest or weed control at 20 ppm (Meloidogyne incognita)	pest or weed control at 20 ppm (Myzus persicae [2])	pest or weed control at 100 ppm (Myzus persicae [1])	other results
Cc1c(C(=O)NS(=O)(=O)c2ccccc2Br)nc(-c2c(F)cccc2F)n1C [Example 195]	90%	100%		pest or weed control at 20 ppm (Myzus persicae [1]; 20 ppm): 80%; pest or weed control at 500 g/ha (Phaedon cochleariae): 100%; pest or weed control at 500 g/ha (Tetranychus urticae): 90%
Cc1c(C(=O)NS(=O)(=O)c2ccccc2Cl)nc(-c2c(F)cccc2F)n1C [Example 194]	90%	100%		efficacy (kill in %) (Aphis gossypii): 100%
Cn1cc(C(=O)NS(=O)(=O)c2ccc(Cl)cc2Cl)nc1-c1ccccc1Cl [Example 231]	100%			pest or weed control at 100 ppm (Lucilia cuprina): 100%; pest or weed control at 100 ppm (Musca domestica): 100%; pest or weed control at 500 g/ha (Myzus persicae [3]): 90%; pest or weed control at 500 g/ha (Phaedon cochleariae): 100%
Cc1ccccc1S(=O)(=O)NC(=O)c1cn(C)c(-c2c(C)cccc2C)n1 [Example 478]	90%	100%	99%	
Cc1ccc(C)c(S(=O)(=O)NC(=O)c2cn(C)c(-c3cccc4ccccc34)n2)c1 [Example 502]	100%	100%		pest or weed control at 500 g/ha (Phaedon cochleariae): 100%; efficacy (kill in %) (Aphis gossypii): 95%
Cc1ccccc1S(=O)(=O)NC(=O)c1cn(C)c(-c2ccc(Cl)c(Cl)c2)n1 [Example 536]	90%	100%	80%	
Cc1[nH]c(-c2ccc(Cl)c(Cl)c2)nc1C(=O)NS(=O)(=O)C(C)C [Example 237]		100%	90%	
CCn1c(C(=O)NS(=O)(=O)c2ccccc2Br)nc(-c2c(F)cccc2F)c1C [Example 415]	100%	100%	100%	
Cc1ccc(C)c(S(=O)(=O)NC(=O)c2cn(C)c(-c3c(F)cccc3F)n2)c1 [Example 394]	90%	100%		pest or weed control at 100 ppm (Lucilia cuprina): 95%; pest or weed control at 100 ppm (Musca domestica): 100%; pest or weed control at 500 g/ha (Myzus persicae [3]): 100%; pest or weed control at 500 g/ha (Phaedon cochleariae): 100%
CCc1ccccc1S(=O)(=O)NC(=O)c1cn(C)c(-c2ccccc2Cl)n1 [Example 219]	90%	100%		efficacy (laying of fertile eggs) (Boophilus microplus): 80%; pest or weed control at 100 ppm (Lucilia cuprina): 100%; pest or weed control at 100 ppm (Musca domestica): 85%; pest or weed control at 500 g/ha (Myzus persicae [3]): 100%
Cc1c(C(=O)NS(=O)(=O)c2ccccc2Cl)nc(-c2ccccc2Cl)n1C [Example 103]	100%	100%		efficacy (kill in %) (Aphis gossypii): 98%
Cc1nc(C)c(S(=O)(=O)NC(=O)c2cn(C)c(-c3c(F)cccc3F)n2)s1 [Example 347]		90%	90%	
Cc1[nH]c(C(=O)NS(=O)(=O)c2ccccc2Br)nc1-c1c(F)cccc1F [Example 146]			90%	
CCn1cc(C(=O)NS(=O)(=O)c2cc(OC)ccc2Cl)nc1-c1ccccc1Cl [Example 68]	90%	100%	100%	pest or weed control at 100 ppm (Lucilia cuprina): 100%; pest or weed control at 100 ppm (Musca domestica): 80%
Cn1cc(C(=O)NS(=O)(=O)Cc2ccccc2)nc1-c1ccccc1Cl [Example 60]	100%	100%	85%	
Cc1[nH]c(-c2ccc(F)cc2F)nc1C(=O)NS(=O)(=O)c1ccccc1Cl [Example 616]	100%	100%	97%	
Cc1ccccc1S(=O)(=O)NC(=O)c1cn(C)c(-c2ccccc2-c2ccccc2)n1 [Example 533]		100%	90%	
Cc1cccc(C)c1S(=O)(=O)NC(=O)c1cn(C)c(-c2c(F)cccc2F)n1 [Example 186]	90%	100%		pest or weed control at 100 ppm (Lucilia cuprina): 100%; pest or weed control at 100 ppm (Musca domestica): 85%; pest or weed control at 500 g/ha (Myzus persicae [3]): 100%; pest or weed control at 500 g/ha (Phaedon cochleariae): 100%
COc1ccccc1S(=O)(=O)NC(=O)c1cn(C)c(-c2ncccc2F)n1 [Example 538]	90%	100%	100%	
Cc1ccccc1S(=O)(=O)NC(=O)c1cn(C)c(-c2cccc(F)c2F)n1 [Example 518]	90%	100%	95%	
